From BindingDB's records for doi:10.1016/j.bmc.2010.01.055 (Chinese Academy of Sciences, 2010)

Target: Receptor-type tyrosine-protein phosphatase alpha (PTPRA) (Homo sapiens) (UniProt P18433)
Assay: Inhibition of PTPalpha expressed in Escherichia coli BL21 (DE3) after 10 mins by spectrophotometry

Receptor-type tyrosine-protein phosphatase alpha (PTPRA) (Homo sapiens), sequence (P18433 whole entry, looked up): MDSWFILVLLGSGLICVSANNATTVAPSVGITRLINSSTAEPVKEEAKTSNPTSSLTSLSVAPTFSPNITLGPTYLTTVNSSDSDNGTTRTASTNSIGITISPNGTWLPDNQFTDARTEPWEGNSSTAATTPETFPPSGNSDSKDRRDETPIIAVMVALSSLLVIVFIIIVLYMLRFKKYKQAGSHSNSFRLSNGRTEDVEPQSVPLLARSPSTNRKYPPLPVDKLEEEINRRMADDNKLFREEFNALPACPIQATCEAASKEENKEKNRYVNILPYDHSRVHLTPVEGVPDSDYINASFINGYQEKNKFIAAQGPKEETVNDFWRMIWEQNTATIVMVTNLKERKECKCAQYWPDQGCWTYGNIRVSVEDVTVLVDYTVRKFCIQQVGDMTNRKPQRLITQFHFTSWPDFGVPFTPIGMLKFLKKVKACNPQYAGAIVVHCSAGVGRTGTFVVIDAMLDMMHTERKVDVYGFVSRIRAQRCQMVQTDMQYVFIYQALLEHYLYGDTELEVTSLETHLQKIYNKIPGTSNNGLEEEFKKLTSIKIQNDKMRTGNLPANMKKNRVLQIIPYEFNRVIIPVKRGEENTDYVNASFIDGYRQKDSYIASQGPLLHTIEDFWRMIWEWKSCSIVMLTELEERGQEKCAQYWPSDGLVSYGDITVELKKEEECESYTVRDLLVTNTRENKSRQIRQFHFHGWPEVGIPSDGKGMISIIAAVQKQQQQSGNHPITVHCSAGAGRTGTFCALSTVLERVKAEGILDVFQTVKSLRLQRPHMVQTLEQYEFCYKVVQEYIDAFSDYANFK

IC50 [µM]	Structure (SMILES)
> 100	CC(C)OC(=O)c1c(-c2ccc(-c3ccccc3)cc2)csc1NC(=O)C1C2C=CC(C2)C1C(=O)O (centres undefined) [4-Biphenyl-4-yl-2-[(3-carboxy-bicyclo[2.2.1]hept-5-ene-2-carbonyl)-amino]-thiophene-3-carboxylic acid isopropylester]
> 100	CC(C)OC(=O)c1c(-c2ccc(-c3ccc(Cl)cc3)cc2)csc1NC(=O)C1C2C=CC(C2)C1C(=O)O (centres undefined) [2-[(3-Carboxy-bicyclo[2.2.1]hept-5-ene-2-carbonyl)-amino]-4-(4'-chloro-biphenyl-4-yl)-thiophene-3-carboxylicacid isopropyl ester]
23.1	CCOC(=O)c1c(-c2ccc(-c3ccc(F)c(Cl)c3)cc2)csc1NC(=O)c1ccccc1C(=O)O [2-(2-Carboxy-benzoylamino)-4-(30-chloro-40-fluorobiphenyl-4-yl)-thiophene-3-carboxylic acid ethyl ester]
> 100	CCc1oc2cc(S(=O)(=O)Nc3nccs3)ccc2c1C(=O)c1cc(Br)c(O)c(Br)c1 [3-(3,5-dibromo-4-hydroxybenzoyl)-2-ethyl-N-(thiazol-2-yl)benzofuran-6-sulfonamide]
